According to patent publication US10829473B2, “Modulators of the cystic fibrosis transmembrane conductance regulator protein and methods of use” (AbbVie Overseas S.Á.R.L., priority 2017, dated 2020):
Like-named read-outs stand apart in the source and are kept apart here. Marks after values point to notes of the source that are not given here.

Molecular target: T1, F508delCFTR (Homo sapiens, UniProt P13569, DEL508-508)
T1 construct: expressed in transfected cells; host or cells: CFBE41o- human lung derived epithelial cells (CFBE41o-F508delCFTR-HRP), doxycycline-inducible
Assay: Cell Surface Expression-Horse Radish Peroxidase (CSE-HRP) Assay;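 on EC50 (with co-corrector): co-corrector chromenyl benzoic acid corrector at 2 or 3 µM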;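 on Maximum % activity (without co-corrector): % of on-plate positive control chromenyl benzoic acid corrector at 2 or 3 µM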
Format: cell-based
Details: for Maximum % activity (with co-corrector) / Emax: maximum at any tested concentration; for Emax: read-out: Maximum % activity (without co-corrector)
In short: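 Corrector compounds were given as 8-point 3-fold series from 20 or 30 μM, with or without a 2 μM co-corrector, for 18-24 h at 33 °C. Surface HRP was read by luminol luminescence as % of positive control; variable-Hill-slope sigmoidal fitting gave EC50 from triplicate plates.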

[1] = test compound alone, without co-corrector, read-out: EC50 (without co-corrector)
[2] = with co-corrector, read-out: EC50 (with co-corrector)
[3] = test compound with co-corrector
[4] = test compound without co-corrector
[5] = test compound with co-corrector, read-out: EC50 (with co-corrector)
[6] = test compound without co-corrector, read-out: EC50 (without co-corrector)

T1 sequence (P13569 with tags, fused parts or gaps DEL508-508): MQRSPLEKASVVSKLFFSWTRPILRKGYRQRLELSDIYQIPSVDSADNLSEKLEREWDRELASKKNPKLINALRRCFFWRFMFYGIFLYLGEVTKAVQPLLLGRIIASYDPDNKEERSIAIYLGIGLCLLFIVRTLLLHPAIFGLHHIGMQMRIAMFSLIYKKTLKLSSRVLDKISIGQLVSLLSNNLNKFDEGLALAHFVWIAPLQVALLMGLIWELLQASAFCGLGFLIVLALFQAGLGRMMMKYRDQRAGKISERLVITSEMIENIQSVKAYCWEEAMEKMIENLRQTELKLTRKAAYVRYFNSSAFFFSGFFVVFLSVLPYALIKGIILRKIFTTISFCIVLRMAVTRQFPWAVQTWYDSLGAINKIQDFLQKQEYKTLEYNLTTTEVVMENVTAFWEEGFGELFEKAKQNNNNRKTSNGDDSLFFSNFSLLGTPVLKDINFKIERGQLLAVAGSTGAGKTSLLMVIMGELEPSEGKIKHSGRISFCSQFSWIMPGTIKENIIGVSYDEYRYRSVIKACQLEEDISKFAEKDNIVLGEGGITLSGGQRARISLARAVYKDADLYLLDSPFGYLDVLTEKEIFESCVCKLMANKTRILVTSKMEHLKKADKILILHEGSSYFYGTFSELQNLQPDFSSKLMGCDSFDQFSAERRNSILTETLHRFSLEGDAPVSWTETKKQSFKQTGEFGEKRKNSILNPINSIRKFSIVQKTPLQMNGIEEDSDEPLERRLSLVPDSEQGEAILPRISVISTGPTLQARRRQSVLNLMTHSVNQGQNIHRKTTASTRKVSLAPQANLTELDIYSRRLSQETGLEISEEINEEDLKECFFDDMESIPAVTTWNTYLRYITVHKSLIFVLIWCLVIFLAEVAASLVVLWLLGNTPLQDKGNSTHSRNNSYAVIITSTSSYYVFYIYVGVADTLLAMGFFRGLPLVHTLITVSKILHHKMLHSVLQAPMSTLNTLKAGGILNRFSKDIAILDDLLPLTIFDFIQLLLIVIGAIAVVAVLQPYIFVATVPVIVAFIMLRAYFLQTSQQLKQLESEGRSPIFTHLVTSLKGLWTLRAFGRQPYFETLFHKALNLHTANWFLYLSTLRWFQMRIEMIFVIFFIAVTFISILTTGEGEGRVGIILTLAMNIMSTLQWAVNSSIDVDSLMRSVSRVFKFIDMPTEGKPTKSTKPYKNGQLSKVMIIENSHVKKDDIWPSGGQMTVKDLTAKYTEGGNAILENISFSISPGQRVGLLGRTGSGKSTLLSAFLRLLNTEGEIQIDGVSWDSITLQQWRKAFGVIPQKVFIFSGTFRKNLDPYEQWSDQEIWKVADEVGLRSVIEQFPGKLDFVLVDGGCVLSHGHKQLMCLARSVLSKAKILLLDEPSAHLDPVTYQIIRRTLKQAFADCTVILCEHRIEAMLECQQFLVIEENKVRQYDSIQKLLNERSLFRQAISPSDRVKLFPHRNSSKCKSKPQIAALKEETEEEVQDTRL

Row | SMILES | EC50 [1] [µM] | Maximum % activity (with co-corrector) (with co-corrector) | EC50 [2] [µM] | Emax (without co-corrector) [%] | EC50 (with co-corrector) [3] | Maximum % activity (with co-corrector) [3] | EC50 (without co-corrector) [4] | Emax [4] [%] | EC50 [5] [µM] | EC50 [6] [µM]
1 | CC(C)Oc1ncc(C2CCC2)cc1C1(C(=O)NS(=O)(=O)c2cccc3[nH]ccc23)CC1 [Example GI-24, 1-{5-cyclobutyl-2-[(propan-2-yl)oxy]pyridin-3-yl}-N-(1H-indole-4-sulfonyl)cyclopropane-1-carboxamide] | < 3 | +++ (≥350) | < 3 | > 150 |  |  |  |  |  | 
2 | COc1ccc(C)cc1C1(C(=O)NS(=O)(=O)c2cccc3ncccc23)CC1 [Example I-44, 1-(2-methoxy-5-methylphenyl)-N-(quinoline-5-sulfonyl)cyclopropane-1-carboxamide] | < 3 | +++ (≥350) | < 3 | > 150 |  |  |  |  |  | 
3 | CCOc1ccc(C)cc1C1(C(=O)NS(=O)(=O)c2cccc3nc(N)ccc23)CC1 [Example I-89, N-(2-aminoquinoline-5-sulfonyl)-1-(2-ethoxy-5-methylphenyl)cyclopropane-1-carboxamide] | < 3 | +++ (≥350) | < 3 | > 150 |  |  |  |  |  | 
4 | O=C(NS(=O)(=O)c1cccc2ncccc12)C1(c2ccccc2OC(F)(F)F)CCC1 [II-3] | 3 to 10 | +++ (≥350) | < 3 | > 150 |  |  |  |  |  | 

Results, then the compound that gave them:

Row | EC50 [1] [µM] | Maximum % activity (with co-corrector) (with co-corrector) | EC50 [2] [µM] | Emax (without co-corrector) [%] | EC50 (with co-corrector) [3] | Maximum % activity (with co-corrector) [3] | EC50 (without co-corrector) [4] | Emax [4] [%] | EC50 [5] [µM] | EC50 [6] [µM] | SMILES
5 | > 10 | + (<150) | > 10 | < 50 |  |  |  |  |  |  | O=C(NS(=O)(=O)c1ccc(Cl)cc1)C1(c2cccc(Cl)c2)CC1 [Example III-10, N-(4-chlorobenzene-1-sulfonyl)-1-(3-chlorophenyl)cyclopropane-1-carboxamide]
6 |  |  |  |  | ++^a | ++ (≥150 and <350) | ++^a | < 50 |  |  | CC(C)COc1cnc(Cl)c(C2(C(=O)NS(=O)(=O)c3cccc4ncccc34)CC2)c1 [GIII-5]
7 | > 10 | + (<150) | > 10 | < 50 |  |  |  |  |  |  | O=C(NS(=O)(=O)c1ccc(OC(F)(F)F)cc1)C1(c2ccc(Cl)cc2Cl)CC1 [Example III-14, 1-(2,4-dichlorophenyl)-N-[4-(trifluoromethoxy)benzene-1-sulfonyl]cyclopropane-1-carboxamide]
8 |  |  |  |  | ++^a | ++ (≥150 and <350) | ++^a | 50 to 150 |  |  | COc1cc(C)c(C2(C(=O)NS(=O)(=O)c3cccc4ncccc34)CC2)cn1 [GII-23, 1-(6-methoxy-4-methylpyridin-3-yl)-N-(quinoline-5-sulfonyl)cyclopropane-1-carboxamide]
9 | > 10 | ++ (≥150 and <350) | 3 to 10 | < 50 |  |  |  |  |  |  | Cc1noc(C)c1S(=O)(=O)NC(=O)C1(c2ccc(Cl)cc2Cl)CC1 [Example III-12, 1-(2,4-dichlorophcnyl)-N-(3,5-dimethyl-1,2-oxazole-4-sulfonyl)cyclopropane-1-carboxamide]
10 |  |  |  |  |  | +++ (≥350) |  | > 150 | 3 to 10 | 3 to 10 | CCc1cnc(N(C)C)c(C2(C(=O)NS(=O)(=O)c3cccc4[nH]ccc34)CC2)c1 [GII-49, 1-[2-(dimethylamino)-5-ethylpyridin-3-yl]-N-(1H-indole-4-sulfonyl)cyclopropane-1-carboxamide]
11 |  |  |  |  |  | + (<150) |  | < 50 | > 10 | > 10 | CC(C)Oc1ncc(CO)cc1C1(C(=O)NS(=O)(=O)c2cccc3ncccc23)CC1 [GIII-35]
12 | > 10 | ++ (≥150 and <350) | > 10 | < 50 |  |  |  |  |  |  | COc1ccc(S(=O)(=O)NC(=O)C2(c3ccc(Cl)cc3Cl)CC2)cc1 [Example III-24, 1-(2,4-dichlorophenyl)-N-(4-methoxybenzene-1-sulfonyl)cyclopropane-1-carboxamide]
